Results: patent publication US7078400B2, “20-HETE synthase inhibitor” (Taisho Pharmaceutical Co., Ltd., priority 1999, dated 2006)

System: 20-HETE synthase originated from rat kidney microsome
Assay: Inhibitory effect of 20-HETE synthase originated from rat kidney microsome
Assay type: biochemical
Conditions: for Inhibition rate (1 μM): 20-HETE production without compound set to 100%; for IC50: concentration at which production of 20-HETE was inhibited to 50%
Experimental: Experimental Example [Inhibitory effect of 20-HETE synthase originated from rat kidney microsome]
Regarding the compounds listed in Table 1, their inhibitory activity to production of 20-HETE was examined.
The subject compound for this examination was added to a buffer comprising 50 mM of 3-morpholinopropane sulfonic acid (pH7.4), 5 mM of magnesium chloride and 1 mM of ethylenediaminetetraacetic acid (EDTA) disodium salt.
After that, the rat kidney microsome (microsome fraction prepared from the kidney of a spontaneous hypertension rat (male, 6 weeks of age)) as an enzyme, [5,6,8,9,11,12,14,15] tritium-arachidonic acid (supplied by Amasham) as a substrate, and NADPH (supplied by Sigma) as a coenzyme were added and reacted for 1.5 hours at 37° C.
After the reaction, formic acid was added to stop the reaction, and then acetonitrile (final concentration of 50%) was added and left for 1.5 hours at room temperature.
The activity of 20-HETE synthase was measured by using a high performance liquid chromatograph having a detector for radioactive substances (supplied by Gilson), and equipped with a C18 reversed phase column (Biocyl C18, supplied by Bio-rad).

[1] = 1 μM of subject compound, rat kidney microsome

Row | Structure (SMILES) | Inhibition rate (1 μM) [1] | Inhibition rate (1 μM) (1 μM of the subject compound) | other results
1 | CCCCCCCCOc1ccc(N/C=N/O)cc1 [Comp. 322] | 117.5 | – | –
2 | CCC(C)CCOc1ccc(N/C=N/O)cc1 (stereo not shown) [Comp. 326] | 110.8 | – | –
3 | CC(C)CCCOc1ccc(N/C=N/O)cc1 [Comp. 327] | 110.1 | – | –
4 | CC(C)CCOc1ccc(N/C=N/O)cc1 [Comp. 328] | 121.4 | – | –
5 | CCN(CC)CCOc1ccc(N/C=N/O)cc1 [Comp. 351] | 89 | – | –
6 | O/N=C/Nc1ccc(OCCN2CCCCC2)cc1 [Comp. 357] | 98 | – | –
7 | O/N=C/Nc1ccc(OCC2CCCCCC2)cc1 [Comp. 370] | 113.7 | – | –
8 | Cc1ccc(CCOc2ccc(N/C=N/O)cc2)cc1 [Comp. 372] | 100.5 | – | –
9 | COc1ccc(CCCOc2ccc(N/C=N/O)cc2)cc1OC [Comp. 374] | 119.1 | – | –
10 | COc1ccc(CCCOc2ccc(N/C=N/O)cc2)cc1 [Comp. 375] | 117.7 | – | –
11 | O/N=C/Nc1ccc(OCCc2cccc(Br)c2)cc1 [Comp. 376] | 114.9 | – | –
12 | CCOC(=O)CCCCCOc1ccc(N/C=N/O)cc1 [Comp. 378] | 102.4 | – | –
13 | COc1ccccc1CCOc1ccc(N/C=N/O)cc1 [Comp. 379] | 105.4 | – | –
14 | CC(C)=CCCC(C)CCOc1ccc(N/C=N/O)cc1 (stereo not shown) [Comp. 380] | 118.9 | – | –
15 | O/N=C/Nc1ccc(OCCCCc2ccccc2)cc1 [Comp. 381] | 116.0 | – | –
16 | Cc1ccc(COc2ccc(N/C=N/O)cc2)cc1 [Comp. 383] | 116.2 | – | –
17 | O/N=C/Nc1ccc(OCc2ccccc2CCc2ccccc2)cc1 [Comp. 386] | 105.2 | – | –
18 | O/N=C/Nc1ccc(OCc2cccc(Oc3ccccc3)c2)cc1 [Comp. 388] | 96.2 | – | –
19 | COC(=O)c1ccc(COc2ccc(N/C=N/O)cc2)cc1 [Comp. 396] | 102.7 | – | –
20 | O/N=C/Nc1ccc(OCc2ccc(-c3ccccc3)cc2)cc1 [Comp. 397] | 99.3 | – | –
21 | CCN(CC)CCOCCOc1ccc(N/C=N/O)cc1 [Comp. 398] | – | 95.2 | IC50: 2.4 nM

Row | Structure (SMILES) | Inhibition rate (1 μM) [1] | Inhibition rate (1 μM) (1 μM of the subject compound) | other results
22 | CCN(CCOc1ccc(N/C=N/O)cc1)c1cccc(C)c1 [Comp. 405] | – | 116.0 | –
23 | Cn1c(=O)c2c(ncn2CCOc2ccc(N/C=N/O)cc2)n(C)c1=O [Comp. 406] | – | 73.7 | –
24 | O/N=C/Nc1ccc(OCCOc2ccccc2)cc1 [Comp. 418] | – | 120.4 | –
25 | O/N=C/Nc1ccc(OCCSc2ccccc2)cc1 [Comp. 419] | – | 116.1 | –
26 | OCCCCCOc1ccc(N/C=N/O)cc1 [Comp. 427] | – | – | IC50: 2.6 nM
27 | O/N=C/Nc1ccc(OCCCN2CCCC2)cc1 [Comp. 429] | – | – | IC50: 79.1 nM
28 | O/N=C/Nc1ccc(SCc2ccc(Cl)cc2)cc1 [Comp. 437] | – | 96.1 | –
29 | O/N=C/Nc1ccc(SC2CCCCC2)cc1 [Comp. 438] | – | 87.9 | –
30 | CCOC(=O)CSc1ccc(N/C=N/O)cc1 [Comp. 440] | – | 102.8 | –
31 | CCCCSc1ccc(N/C=N/O)cc1 [Comp. 442] | – | 95.7 | –
32 | CC(C)CCSc1ccc(N/C=N/O)cc1 [Comp. 443] | – | 103.0 | –
33 | COC(=O)CSc1ccc(N/C=N/O)cc1 [Comp. 446] | – | 95.9 | –
34 | O/N=C/Nc1ccc(SC2CCCC2)cc1 [Comp. 447] | – | 95.9 | –
35 | CCCCCSc1ccc(N/C=N/O)cc1 [Comp. 450] | – | 105.9 | –
36 | CCCCCCSc1ccc(N/C=N/O)cc1 [Comp. 451] | – | 97.6 | –
37 | CCCCCCCSc1ccc(N/C=N/O)cc1 [Comp. 452] | – | 112.3 | –
38 | CCCCCCCCCSc1ccc(N/C=N/O)cc1 [Comp. 453] | – | 95.3 | –
39 | CCN(CC)CCSc1ccc(N/C=N/O)cc1 [Comp. 454] | – | 105.8 | –
40 | COC(=O)CCSc1ccc(N/C=N/O)cc1 [Comp. 455] | – | 105.6 | –
41 | CCOC(=O)CCSc1ccc(N/C=N/O)cc1 [Comp. 457] | – | 112.6 | –
42 | O/N=C/Nc1ccc(SCCc2ccccc2)cc1 [Comp. 458] | – | 116.0 | –
